Assay results as given in patent US20230183193A1, “4-DIFLUOROMETHYL BENZOYL AMIDES WITH HERBICIDAL ACTION” (BAYER CROPSCIENCE AKTIENGESELLSCHAFT, priority 2017, published 2023).

Tests used:
Abutilon theophrasti [1] = experiment: Pre-emergence herbicidal action, ABUTH; type: in vivo; conditions: for Herbicidal efficacy against ABUTH: Table K; for herbicidal activity ABUTH: scored visually after 3 weeks vs untreated controls
In short: (§1)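 Percent herbicidal activity rated by eye 3 weeks after pre-emergence soil-surface application, compared with untreated pots. Seeds sat under sandy loam; sprays carried 0.2% wetting agent.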

Alopecurus myosuroides [2] = experiment: Pre-emergence herbicidal action, ALOMY; type: in vivo
In short: as §1

Amaranthus retroflexus [3] = experiment: Pre-emergence herbicidal action, AMARE; type: in vivo; conditions: dosage 320 g/ha, scored visually after 3 weeks vs untreated controls
In short: as §1

Avena fatua [4] = experiment: Pre-emergence herbicidal action, AVEFA; type: in vivo; conditions: for herbicidal activity AVEFA: dosage 320 g/ha, scored visually after 3 weeks vs untreated controls
In short: as §1

Cyperus serotinus = experiment: Pre-emergence herbicidal action, CYPES; type: in vivo
In short: as §1

Matricaria inodora = experiment: Pre-emergence herbicidal action, MATIN; type: in vivo; conditions: for Herbicidal efficacy against MATIN: Table K; for herbicidal activity MATIN: scored visually after 3 weeks vs untreated controls
In short: as §1

Polygonum convolvulus = experiment: Pre-emergence herbicidal action, POLCO; type: in vivo; conditions: Table K
Text: 1. Pre-Emergence Herbicidal Action Against Harmful Plants Seeds of monocotyledonous and dicotyledonous weed plants and crop plants are laid out in sandy loam soil in wood-fiber pots and covered with soil. The compounds of the invention, formulated in the form of wettable powders (WP) or as emulsion concentrates (EC), are then applied to the surface of the covering soil in the form of an aqueous suspension or emulsion at a water application rate equating to […], with addition of 0.2% wetting agent. After the treatment, the pots are placed in a greenhouse and kept under good growth conditions for the trial plants. The damage to the test plants is scored visually after a test period of 3 weeks by comparison with untreated controls (herbicidal activity in percent (%): 100% activity=the plants have died, 0% activity=like control plants).
For comparison, the herbicidal activity of numerous compounds according to the invention was tested with the structurally closest compounds known from the documents WO 2011/035874, WO 2012/028579 and WO 2012/126932, by the pre- and post-emergence method.

Setaria viridis [5] = experiment: Pre-emergence herbicidal action, SETVI; type: in vivo; conditions: for herbicidal activity SETVI: dosage 320 g/ha, scored visually after 3 weeks vs untreated controls
In short: as §1

Stellaria media [6] = experiment: Pre-emergence herbicidal action, STEME; type: in vivo; conditions: dosage 320 g/ha, scored visually after 3 weeks vs untreated controls
In short: as §1

Viola tricolor [7] = experiment: Pre-emergence herbicidal action, VIOTR; type: in vivo; conditions: for Herbicidal efficacy against VIOTR: Table K; for herbicidal activity VIOTR: scored visually after 3 weeks vs untreated controls
In short: as §1

Abutilon theophrasti [8] = experiment: Post-emergence herbicidal action, ABUTH; type: in vivo; conditions: 80 g/ha, Table D
In short: (§2)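 Herbicidal effect is rated visually as percent versus untreated plants (100% = dead, 0% = like control) about 3 weeks after spraying. Plants were sown in sandy loam in the greenhouse and sprayed on green parts at the one-leaf stage, 2 to 3 weeks post-sowing.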

Alopecurus myosuroides [9] = experiment: Post-emergence herbicidal action, ALOMY; type: in vivo; conditions: for Herbicidal efficacy against ALOMY: 20 g/ha
In short: as §2

Amaranthus retroflexus [10] = experiment: Post-emergence herbicidal action, AMARE; type: in vivo; conditions: 80 g/ha, Table D
In short: as §2

Avena fatua [11] = experiment: Post-emergence herbicidal action, AVEFA; type: in vivo; conditions: for Herbicidal efficacy against AVEFA: 20 g/ha
In short: as §2

Pharbitis purpureum = experiment: Post-emergence herbicidal action, PHBPU; type: in vivo; conditions: 80 g/ha, Table D
In short: as §2

Setaria viridis [12] = experiment: Post-emergence herbicidal action, SETVI; type: in vivo; conditions: for Herbicidal efficacy against SETVI: 20 g/ha; for herbicidal activity SETVI: 80 g/ha, Table C
In short: as §2

Stellaria media [13] = experiment: Post-emergence herbicidal action, STEME; type: in vivo; conditions: for Herbicidal efficacy against STEME: 20 g/ha; for Herbicidal activity STEME: 80 g/ha, Table D
In short: as §2

Viola tricolor [14] = experiment: Post-emergence herbicidal action, VIOTR; type: in vivo; conditions: for Herbicidal efficacy against VIOTR: 20 g/ha; for herbicidal activity VIOTR: 80 g/ha, Table D
In short: as §2

ECHCG [15] = experiment: Post-emergence herbicidal action, ECHCG; type: in vivo; conditions: 80 g/ha, Table C
In short: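 Weed and crop plants grown in sandy loam in the greenhouse, treated at the one-leaf stage 2–3 weeks after sowing. Damage scored visually after about 3 weeks vs untreated controls (0% = control, 100% = dead).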

ECHCG [16] = experiment: Pre-emergence herbicidal action, ECHCG; type: in vivo, Echinochloa crus-galli
[17] = dosage 320 g/ha, scored visually after 3 weeks vs untreated controls

SMILES	Herbicidal efficacy against ABUTH (Abutilon theophrasti [1]; dosage 80 g/ha)	Herbicidal efficacy against ABUTH (Abutilon theophrasti [1]; dosage 320 g/ha)	herbicidal activity ABUTH (Abutilon theophrasti [1]; dosage 320 g/ha) [%]	Herbicidal efficacy against ALOMY (Alopecurus myosuroides [2]; 320 g/ha)	herbicidal activity AMARE (Amaranthus retroflexus [3]) [%]	Herbicidal efficacy against AVEFA (Avena fatua [4]; 80 g/ha)	Herbicidal efficacy against AVEFA (Avena fatua [4]; 320 g/ha)	herbicidal activity AVEFA (Avena fatua [4]) [%]	Herbicidal efficacy against CYPES (Cyperus serotinus; 80 g/ha)	Herbicidal efficacy against CYPES (Cyperus serotinus; 320 g/ha)	Herbicidal efficacy against MATIN (Matricaria inodora; dosage 80 g/ha)	Herbicidal efficacy against MATIN (Matricaria inodora; dosage 320 g/ha)	herbicidal activity MATIN (Matricaria inodora; dosage 320 g/ha) [%]	Herbicidal efficacy against POLCO (Polygonum convolvulus; dosage 80 g/ha)	Herbicidal efficacy against POLCO (Polygonum convolvulus; dosage 320 g/ha)	Herbicidal efficacy against SETVI (Setaria viridis [5]; 80 g/ha)	Herbicidal efficacy against SETVI (Setaria viridis [5]; 320 g/ha)	herbicidal activity SETVI (Setaria viridis [5]) [%]	Herbicidal activity STEME (Stellaria media [6]) [%]	Herbicidal efficacy against VIOTR (Viola tricolor [7]; dosage 80 g/ha)	further results
CSc1c(C(F)F)ccc(C(=O)Nc2ncnn2C)c1C [Example 4-1, 4-(difluoromethyl)-2-methyl-3-(methylsulfanyl)-N-(1-methyl-1H-1,2,4-triazol-5-yl)benzamide]	90	100	100	40	100	30	80	80	30	50	80	90	90	30	30	80	100	100	90	100	Herbicidal efficacy against VIOTR (Viola tricolor [7]; dosage 320 g/ha): 100; herbicidal activity VIOTR (Viola tricolor [7]; dosage 320 g/ha): 100%; herbicidal activity ABUTH (Abutilon theophrasti [8]): 100%; Herbicidal efficacy against ALOMY (Alopecurus myosuroides [9]): 70; herbicidal activity ALOMY (Alopecurus myosuroides [9]; 80 g/ha, Table C): 80%; herbicidal activity AMARE (Amaranthus retroflexus [10]): 100%; Herbicidal efficacy against AVEFA (Avena fatua [11]): 20; Herbicidal activity PHBPU (Pharbitis purpureum): 100%; Herbicidal efficacy against SETVI (Setaria viridis [12]): 60; herbicidal activity SETVI (Setaria viridis [12]): 100%; Herbicidal efficacy against STEME (Stellaria media [13]): 80; Herbicidal activity STEME (Stellaria media [13]): 100%; Herbicidal efficacy against VIOTR (Viola tricolor [14]): 100; herbicidal activity VIOTR (Viola tricolor [14]): 100%; Herbicidal activity ECHCG (ECHCG [15]): 90%; Herbicidal efficacy against ECHCG (ECHCG [16]; 80 g/ha): 70; Herbicidal efficacy against ECHCG (ECHCG [16]; 320 g/ha): 100
Cc1c(C(=O)Nc2ncnn2C)ccc(C(F)F)c1S(C)(=O)=O [Example 4-3]	100	100	100	90	100	30	80	80	100	100	100	100	100	40	70	90	100	100	100	100	Herbicidal efficacy against ALOMY (Alopecurus myosuroides [2]; 80 g/ha): 60; herbicidal activity ALOMY (Alopecurus myosuroides [2]; [17]): 90%; herbicidal activity CYPES (Cyperus serotinus; [17]): 100%; Herbicidal efficacy against VIOTR (Viola tricolor [7]; dosage 320 g/ha): 100; herbicidal activity VIOTR (Viola tricolor [7]; dosage 320 g/ha): 100%; herbicidal activity ABUTH (Abutilon theophrasti [8]): 100%; Herbicidal efficacy against ALOMY (Alopecurus myosuroides [9]): 30; herbicidal activity AMARE (Amaranthus retroflexus [10]): 100%; Herbicidal efficacy against AVEFA (Avena fatua [11]): 50; herbicidal activity AVEFA (Avena fatua [11]; 80 g/ha, Table C): 90%; Herbicidal activity PHBPU (Pharbitis purpureum): 100%; Herbicidal efficacy against SETVI (Setaria viridis [12]): 40; herbicidal activity SETVI (Setaria viridis [12]): 100%; Herbicidal efficacy against STEME (Stellaria media [13]): 60; Herbicidal activity STEME (Stellaria media [13]): 90%; Herbicidal efficacy against VIOTR (Viola tricolor [14]): 100; herbicidal activity VIOTR (Viola tricolor [14]): 100%; Herbicidal activity ECHCG (ECHCG [15]): 100%; Herbicidal efficacy against ECHCG (ECHCG [16]; 80 g/ha): 100; Herbicidal efficacy against ECHCG (ECHCG [16]; 320 g/ha): 100
